Values quoted from earlier work as cited in patent EP0985412B1, “Cyclosporin compositions” (Panacea Biotec Limited, priority 1998, dated 2000).

Tested on: normal epithelial tissue and Peyer's patch tissue of guinea pigs

**Q.** For Choleic acid, which “absorption raised by a factor” value is on record?
**A.** 5-6
